Source: PubChem BioAssay AID1963845 (Molecular Pharmacology Branch, DTP, NCI, 2024)

System: 429239-143-T-J1-PDC complex spheroid viability
Assay: Anticancer human tumor 429239-143-T-J1-PDC patient-derived small cell lung carcinoma cell line growth inhibition [POLQ]
Conditions: for IC50: curve of first compound; for viability, T/C: stronger effect = lower value
Summary of the method: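 Patient-derived tumour cells were co-cultured with HUVEC and mesenchymal stem cells as multicellular spheroids at 37 °C. They were treated with POLQ inhibitors (novobiocin, ART-558, RP6685) alone or combined with other agents. Top concentrations were at or near clinical Cmax (otherwise 10 microM; SN-38 at 1 microM), decreasing in half-log steps.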

[1] = second compound 0.0316 µM, first compound 0.0316 µM
[2] = second compound 0.0316 µM, first compound 0.1 µM
[3] = second compound 0.0316 µM, first compound 0.316 µM
[4] = second compound 0.0316 µM, first compound 1 µM
[5] = second compound 0.1 µM, first compound 0.0316 µM
[6] = second compound 0.1 µM, first compound 0.1 µM
[7] = second compound 0.1 µM, first compound 0.316 µM
[8] = second compound 0.1 µM, first compound 1 µM
[9] = second compound 0.316 µM, first compound 0.0316 µM
[10] = second compound 0.316 µM, first compound 0.1 µM
[11] = second compound 0.316 µM, first compound 0.316 µM
[12] = second compound 0.316 µM, first compound 1 µM
[13] = second compound 1 µM, first compound 0.0316 µM
[14] = second compound 1 µM, first compound 0.1 µM
[15] = second compound 1 µM, first compound 0.316 µM
[16] = second compound 1 µM, first compound 1 µM
[17] = second compound 3.16 µM, first compound 0.0316 µM
[18] = second compound 3.16 µM, first compound 0.1 µM
[19] = second compound 3.16 µM, first compound 0.316 µM
[20] = second compound 3.16 µM, first compound 1 µM
[21] = second compound 10 µM, first compound 0.0316 µM
[22] = second compound 10 µM, first compound 0.1 µM
[23] = second compound 10 µM, first compound 0.316 µM
[24] = second compound 10 µM, first compound 1 µM
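Also: luminescence signal used as surrogate measure of viable cells; spheroids exposed to compounds for seven days before readout.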
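For viability, T/C in this document: 100% = DMSO vehicle control viability as luminescence relative to vehicle.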

CCc1c2c(nc3ccc(O)cc13)-c1cc3c(c(=O)n1C2)COC(=O)[C@]3(O)CC + COC1C(OC(N)=O)C(O)C(Oc2ccc3c(O)c(NC(=O)c4ccc(O)c(CC=C(C)C)c4)c(=O)oc3c2C)OC1(C)C
IC50 (second compound 0.0316 µM): < 3.16 nM
IC50 (second compound 0.1 µM): < 3.16 nM
IC50 (second compound 0.316 µM): < 3.16 nM
IC50 (second compound 1 µM): < 3.16 nM
IC50 (second compound 3.16 µM): < 3.16 nM
IC50 (second compound 10 µM): < 3.16 nM
viability, T/C (second compound 0.0316 µM, first compound 0.00316 µM): 19.1%
viability, T/C (second compound 0.0316 µM, first compound 0.01 µM): 17.6%
viability, T/C [1]: 17.5%
viability, T/C [2]: 20%
viability, T/C [3]: 17.5%
viability, T/C [4]: 8.92%
viability, T/C (second compound 0.1 µM, first compound 0.00316 µM): 17%
viability, T/C (second compound 0.1 µM, first compound 0.01 µM): 17.4%
viability, T/C [5]: 17.8%
viability, T/C [6]: 20.6%
viability, T/C [7]: 14%
viability, T/C [8]: 5.7%
viability, T/C (second compound 0.316 µM, first compound 0.00316 µM): 17.4%
viability, T/C (second compound 0.316 µM, first compound 0.01 µM): 18.3%
viability, T/C [9]: 17.3%
viability, T/C [10]: 14.5%
viability, T/C [11]: 15.6%
viability, T/C [12]: 5.23%
viability, T/C (second compound 1 µM, first compound 0.00316 µM): 21.4%
viability, T/C (second compound 1 µM, first compound 0.01 µM): 18.1%
viability, T/C [13]: 18%
viability, T/C [14]: 19.1%
viability, T/C [15]: 12.5%
viability, T/C [16]: 6.46%
viability, T/C (second compound 3.16 µM, first compound 0.00316 µM): 20.1%
viability, T/C (second compound 3.16 µM, first compound 0.01 µM): 14.8%
viability, T/C [17]: 18.4%
viability, T/C [18]: 18.5%
viability, T/C [19]: 15.3%
viability, T/C [20]: 5.6%
viability, T/C (second compound 10 µM, first compound 0.00316 µM): 18.1%
viability, T/C (second compound 10 µM, first compound 0.01 µM): 18.9%
viability, T/C [21]: 18.2%
viability, T/C [22]: 15.8%
viability, T/C [23]: 14.8%
viability, T/C [24]: 5.55%

Nc1ccn(C2OC(CO)C(O)C2(F)F)c(=O)n1 (centres undefined) + COC1C(OC(N)=O)C(O)C(Oc2ccc3c(O)c(NC(=O)c4ccc(O)c(CC=C(C)C)c4)c(=O)oc3c2C)OC1(C)C
IC50 (second compound 0.0316 µM): < 31.6 nM
IC50 (second compound 0.1 µM): < 31.6 nM
IC50 (second compound 0.316 µM): < 31.6 nM
IC50 (second compound 1 µM): < 31.6 nM
IC50 (second compound 3.16 µM): < 31.6 nM
IC50 (second compound 10 µM): < 31.6 nM
viability, T/C [1]: 23.4%
viability, T/C [2]: 19.2%
viability, T/C [3]: 19.7%
viability, T/C [4]: 16.5%
viability, T/C (second compound 0.0316 µM, first compound 3.16 µM): 17.5%
viability, T/C (second compound 0.0316 µM, first compound 10 µM): 16.4%
viability, T/C [5]: 15.1%
viability, T/C [6]: 17.8%
viability, T/C [7]: 18.2%
viability, T/C [8]: 17.4%
viability, T/C (second compound 0.1 µM, first compound 3.16 µM): 17.3%
viability, T/C (second compound 0.1 µM, first compound 10 µM): 16.1%
viability, T/C [9]: 22.2%
viability, T/C [10]: 17.1%
viability, T/C [11]: 16.7%
viability, T/C [12]: 18.4%
viability, T/C (second compound 0.316 µM, first compound 3.16 µM): 16.9%
viability, T/C (second compound 0.316 µM, first compound 10 µM): 14.8%
viability, T/C [13]: 17.4%
viability, T/C [14]: 17.4%
viability, T/C [15]: 17.8%
viability, T/C [16]: 16.1%
viability, T/C (second compound 1 µM, first compound 3.16 µM): 18.4%
viability, T/C (second compound 1 µM, first compound 10 µM): 21%
viability, T/C [17]: 14.9%
viability, T/C [18]: 13.9%
viability, T/C [19]: 19.1%
viability, T/C [20]: 12.5%
viability, T/C (second compound 3.16 µM, first compound 3.16 µM): 16.3%
viability, T/C (second compound 3.16 µM, first compound 10 µM): 13.5%
viability, T/C [21]: 14.5%
viability, T/C [22]: 16.9%
viability, T/C [23]: 17.5%
viability, T/C [24]: 20.4%
viability, T/C (second compound 10 µM, first compound 3.16 µM): 17%
viability, T/C (second compound 10 µM, first compound 10 µM): 17.1%
